Assays:
[1] = system: monkey ES cell line transfected with an αMHC promoter-driven GFP gene; experiment: Chemical screening: GFP fluorometry for cardiac differentiation of monkey ES cells; format: cell-based, cynomolgus monkey; settings: for increase of cardiac differentiation: alone or in combination with KY02111 (10 μM in late phase); for intensity of GFP fluorescence relative to control culture (KY02111 only, assigned to one): GFP fluorometry day 9; for cardiac differentiation (screening conclusion): under appropriate conditions, Table 1
Experimental: Pluripotent stem cells were cultured in culture media to which the test compounds were added in different concentrations (0.3 μM, 1 μM, 3 μM and 10 μM) in early phase and late phase of differentiation of the cells. Cells from the culture were subjected to GFP fluorometry in accordance with the cardiac differentiation protocol shown in FIG. 1a. Besides the test compounds, 10 μM KY02111 was included in the culture media for the late phase differentiation. The intensity of GFP fluorescence determined in the cells from the control culture, which was cultured with no test compound other than KY02111, was assigned to one.
The scheme of chemical screening is illustrated in FIG. 1a. Compounds were screened for the ability of increasing GFP fluorescence compared with the control (KY02111 alone) using a monkey ES cell line transfected with an αMHC promoter-driven GFP gene (Minami et al., Cell Reports 2, 1448-1460, 2012, which is incorporated herein by reference). The ES cell line was derived from a monkey ES cell line (cynomolgus monkey CMK6.4) by transfecting the cells with a vector which expresses green fluorescent protein (GFP) under control by a promoter of α-MHC gene (a marker of cardiac differentiation). The cells were plated at 4.0×10^5 cells per well in 6 well plates (Asahi Glass/5816-006: Ezview culture plates) and cultured for nine days in an IMDM-based medium for cardiac differentiation (200 ml IMDM medium (Sigma 13390), with 50 ml calf serum (GIBCO 10099-141), 2.5 ml MEM non-essential amino acid solution (Sigma M7145), 2.5 ml penicillin-streptomycin ([…]), 2.5 ml 200 mM L-glutamine, 2 ul 2-mercaptoethanol (Sigma M7522), and 255 ul 5N NaOH). Each test compound was added to the medium at different concentrations in the early phase (day 0 to day 3) and the late phase (day 4 to day 7) of cardiac differentiation. Cells obtained from the culture on day 9 were subjected to GFP fluorometry with a Metamorph imaging system. […]

[2] = system: mesoderm-related genes (MSGN1, T, MIXL1 and NODAL); experiment: Quantitative PCR for expression of mesoderm-related genes under PFCD condition; format: cell-based, human; settings: IMR90-1; 1 μM XAV939, 0.3 μM A419259, 10 μM AG1478, 3 μM KY03-I, day 3 to day 4; mRNA on day 4; FIG. 3f
Experimental: A human iPS cell line (IMR90-1 cultured on MEF feeder) was cultured in PFCD culture media, to which 2 μM CHIR99021 or 0.3 μM PMA or the both (CHIR99021+PMA) were added for early phase of cardiac differentiation (day 0 to day 2). On day 2, mRNA was extracted the cultured cells and analyzed by quantitative PCR for the expression of mesoderm-related genes (MSGN1, T, MIXL1 and NODAL) (FIG. 3e). As a control, cells were cultured similarly, but with DMSO in place of the test compounds. The gene expression level in the control cells was assigned to one. […] In contrast, the expression of the genes was reduced when PMA was added to the culture. However, the reduction in gene expression by PMA was counteracted and reversed when CHIR99021 was added in combination with PMA (in accordance with the optimal PFCD condition).
A human iPS cell line (IMR90-1 from culture on MEF feeder) was cultured in PFCD media with one of 1 μM XAV939, 0.3 μM A419259, 10 μM AG1478 or 3 μM KY03-I, or all of them (XAV939+A419259+AG1478+KY03-I) in late phase of cardiac differentiation (day 3 to day 4). On day 4, mRNA was extracted from the cultured cells and analyzed by quantitative PCR for the expression of mesoderm-related genes (MSGN1, T, MIXL1 and NODAL) (FIG. 3f).

[3] = Induction of cardiac differentiation by a procedure as described in the Examples in WO 2012/026491; format: cell-based
[4] = system: monkey ES cell line transfected with an αMHC promoter-driven GFP gene; experiment: Chemical screening: GFP fluorometry for cardiac differentiation of monkey ES cells; format: cell-based, cynomolgus monkey; settings: 10 to 30 μM in late phase, alone or in combination with KY02111 (10 μM in late phase); FIG. 1d
[5] = test compound 0.3 μM in Early phase (day 0 to day 3), 10 μM KY02111 in late phase
[6] = test compound 0.3 μM in Late phase (day 4 to day 7) with 10 μM KY02111
[7] = test compound 1 μM in Early phase (day 0 to day 3), 10 μM KY02111 in late phase
[8] = test compound 1 μM in Late phase (day 4 to day 7) with 10 μM KY02111
[9] = test compound 3 μM in Early phase (day 0 to day 3), 10 μM KY02111 in late phase
[10] = test compound 3 μM in Late phase (day 4 to day 7) with 10 μM KY02111
[11] = test compound 10 μM in Early phase (day 0 to day 3), 10 μM KY02111 in late phase
[12] = test compound 10 μM in Late phase (day 4 to day 7) with 10 μM KY02111

Compound | increase of cardiac differentiation ([1]; 1 to 3 μM in late phase, FIG. 1e) | intensity of GFP fluorescence relative to control culture (KY02111 only, assigned to one) [1, 5] | intensity of GFP fluorescence relative to control culture (KY02111 only, assigned to one) [1, 6] | intensity of GFP fluorescence relative to control culture (KY02111 only, assigned to one) [1, 7] | intensity of GFP fluorescence relative to control culture (KY02111 only, assigned to one) [1, 8] | intensity of GFP fluorescence relative to control culture (KY02111 only, assigned to one) [1, 9] | intensity of GFP fluorescence relative to control culture (KY02111 only, assigned to one) [1, 10] | intensity of GFP fluorescence relative to control culture (KY02111 only, assigned to one) [1, 11] | intensity of GFP fluorescence relative to control culture (KY02111 only, assigned to one) [1, 12] | cardiac differentiation (screening conclusion) [1] | expression level of NODAL [2] | expression of MSGN1, T and MIXL1 [2] | effect of inducing cardiac differentiation [3] | increase of cardiac differentiation [4] | increase of cardiac differentiation ([1]; 3 to 10 μM in early phase, FIG. 1b)
CN1CCN(C2CCC(n3cc(-c4ccc(Oc5ccccc5)cc4)c4c(N)ncnc43)CC2)CC1 (stereo not shown) [A419259] | two- to five-fold | 0.15 | 1.7 | 0.01 | 5.56 | 0 | 4.8 | 0 | 0.32 | promoted | not significantly different | reduced | – | – | –
CCCOc1ccc(CCC(=O)Nc2nc3ccc(I)cc3s2)cc1OC [SO2077, 2-(3-(3-methoxy-4-propoxyphenyl)propanamido)-6-iodobenzothiazole] | – | – | – | – | – | – | – | – | – | – | – | – | found to have the effect of inducing cardiac differentiation | – | –
COc1ccc(CCCC(=O)Nc2nc3ccc(I)cc3s2)cc1OC [KY03-I, 2-(4-(3,4-dimethoxyphenyl)propanamido)-6-iodobenzothiazole] | – | – | – | – | – | – | – | – | – | – | not significantly different | reduced | found to have the effect of inducing cardiac differentiation | – | –
COc1cc2ncnc(Nc3cccc(Cl)c3)c2cc1OC [AG1478] | – | 0.97 | 1.24 | 0.89 | 1.53 | 0.35 | 2.03 | 0.05 | 3.24 | promoted | not significantly different | reduced | – | two- to three-fold | –
Oc1nc(-c2ccc(C(F)(F)F)cc2)nc2c1CSCC2 [XAV939] | – | – | – | – | – | – | – | – | – | – | not significantly different | reduced | – | – | –
COc1ccc(CCC(=O)Nc2nc3ccc(I)cc3s2)cc1OC [KY02-I, 2-(3-(3,4-dimethoxyphenyl)propanamido)-6-iodobenzothiazole] | – | – | – | – | – | – | – | – | – | – | – | – | found to have the effect of inducing cardiac differentiation | – | –
Cc1ccc(-n2nc(C(C)(C)C)cc2NC(=O)Nc2ccc(OCCN3CCOCC3)c3ccccc23)cc1 [BIRB796] | – | 1.2 | 1.05 | 0.9 | 0.81 | 0.95 | 0.55 | 0.08 | 0.29 | – | – | – | – | – | –
OCCn1cc(-c2cnc3nnn(Cc4ccc5ncccc5c4)c3n2)cn1 [PF042I7903] | – | 1.02 | 1.09 | 0.99 | 1.3 | 0.91 | 0.82 | 0.62 | 0.78 | – | – | – | – | – | –
COc1cc2ncnc(Nc3ccc(F)c(Cl)c3)c2cc1OCCCN1CCOCC1 [gefitinib] | – | – | – | – | – | – | – | – | – | – | – | – | – | two- to three-fold | –
CC(=O)O[C@@]12C[C@@H](C)[C@@]3(O)[C@@H](C=C(CO)C[C@]4(O)C(=O)C(C)=C[C@@H]34)[C@@H]1C2(C)C [Prostratin] | – | 0.79 | 0.72 | 2.31 | 0.3 | 5.42 | 0.01 | 6.88 | 0 | promoted | – | – | – | – | three- to eight-fold
CNC(=O)c1ccccc1Sc1ccc2c(/C=C/c3ccccn3)n[nH]c2c1 [Axitinib] | – | 0.64 | 0.95 | 0.02 | 0.25 | 0 | 0.05 | 0 | 0 | – | – | – | – | – | –
COc1ccc(CC(=O)Nc2nc3ccc(I)cc3s2)cc1OC [KY01-I, 2-(2-(3,4-dimethoxyphenyl)acetamido)-6-iodobenzothiazole] | – | – | – | – | – | – | – | – | – | – | – | – | found to have the effect of inducing cardiac differentiation | – | –

From patent publication US10233426B2, “Method for inducing cardiac differentiation of pluripotent stem cell with low-molecular compounds” (KYOTO UNIVERSITY, priority 2014, dated 2019)
